SMILES strings stand for the structures. Several values for one entry are separate records, joined by “and”; a condition that tells them apart may be missing. Equal values may be shown once.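 Protocol summary: plate cells (96-well), add compound at 5 concentrations, incubate 48 h, interpolate endpoints linearly. At the GI50, growth is halved. TGI marks complete inhibition of growth.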 Bounds are passed on as bounds.

This passage reports GI50 and TGI results from PubChem BioAssay (NCI).

Test systems include SW-620 colon; MCF7 breast; DU-145 prostate; ACHN renal; NCI/ADR-RES ovarian; SN12C renal; MDA-MB-435; HOP-92 NSCLC; CAKI-1 renal; UO-31 renal.
Common to all, as to test: inhibition of tumour cell growth, NCI panel, 48 h

Turning to `CCCCCCCCCCCCCC(=O)C(C)N` (stereo not given), the GI50 with SW-620 colon was 11.6 µM; in the experiment with MCF7 breast, 2.13 µM; in the experiment on DU-145 prostate, 2.59 µM; in the experiment with ACHN renal it was 6.74 µM; in the experiment with NCI/ADR-RES ovarian, 13.7 µM; in the experiment on SN12C renal it was 3.71 µM. Also, the GI50 with MDA-MB-435 is 13.8 µM; in the experiment with HOP-92 NSCLC, 5.71 µM; in the experiment on CAKI-1 renal, 10 µM; in the experiment on UO-31 renal, 10.5 µM. Further, the TGI in the experiment with SW-620 colon is 27.2 µM; with MCF7 breast, 5.77 µM; in the experiment with DU-145 prostate it was 7.35 µM; with ACHN renal it was 20.7 µM; with NCI/ADR-RES ovarian it was 29.4 µM; in the experiment with SN12C renal, 13.3 µM. In addition, the TGI was found to be 28 µM in the experiment on MDA-MB-435, 19.2 µM with HOP-92 NSCLC, 22.6 µM with CAKI-1 renal and 24.2 µM with UO-31 renal.
For `O=C1C(=O)c2ccccc2C(O)=C1CC=C(Cl)Cl`, the GI50 in the experiment with SW-620 colon was 6.98 µM and 4.68 µM; in the experiment on MCF7 breast, 5.15 µM and 4.73 µM; with DU-145 prostate, 12 µM and 10.9 µM; in the experiment on ACHN renal, 3.48 µM and 7.5 µM; in the experiment with NCI/ADR-RES ovarian it was 5.15 µM and 6.97 µM; in the experiment with SN12C renal, 5.92 µM. Further, the GI50 with MDA-MB-435 was 5.7 µM and 7.43 µM; in the experiment on HOP-92 NSCLC, 14.2 µM and 11.8 µM; in the experiment with CAKI-1 renal, 7.47 µM and 7.14 µM; with UO-31 renal it was 15.8 µM and 7.26 µM. Further, the TGI was > 80.5 µM and 231 µM and > 100 µM in the experiment with SW-620 colon; > 58.5 µM and 131 µM and > 100 µM with MCF7 breast; 204 µM and > 100 µM in the experiment on DU-145 prostate; 23 µM and 187 µM and > 100 µM in the experiment with ACHN renal; 56 µM and 174 µM and > 100 µM with NCI/ADR-RES ovarian; > 86.9 µM and 137 µM and > 100 µM with SN12C renal. Further, the TGI was 29.2 µM and 109 µM and 80.6 µM with MDA-MB-435; 50.8 µM and 122 µM and 47.3 µM in the experiment with HOP-92 NSCLC; 65.6 µM and 136 µM and > 100 µM with CAKI-1 renal; 81.2 µM and 101 µM and > 100 µM in the experiment on UO-31 renal.
In the case of `COc1cc(NCc2ccccc2O)c2ncccc2c1`, the GI50 in the experiment with SW-620 colon is 32.2 µM; in the experiment on MCF7 breast, 24.4 µM; in the experiment on DU-145 prostate it was 41.7 µM; in the experiment on ACHN renal, 26.8 µM; with NCI/ADR-RES ovarian, 23.2 µM; in the experiment with SN12C renal it was 34 µM. The GI50 in the experiment on MDA-MB-435 is 11.6 µM; with HOP-92 NSCLC, 3.83 µM; in the experiment with CAKI-1 renal, 6.02 µM; in the experiment on UO-31 renal it was 7.17 µM. For the same compound, the TGI was over 100 µM in the experiment on SW-620 colon; over 100 µM in the experiment on MCF7 breast; over 100 µM in the experiment with DU-145 prostate; over 100 µM in the experiment with ACHN renal; 85.3 µM with NCI/ADR-RES ovarian; over 100 µM in the experiment with SN12C renal. For the same compound, the TGI amounted to 37.9 µM in the experiment with MDA-MB-435, 30.3 µM with HOP-92 NSCLC, 34.1 µM in the experiment on CAKI-1 renal and 75.8 µM with UO-31 renal.
